Numbers after ± are expanded uncertainties.
Columns and labels:
[1] = 101.33 kPa, Liquid; for viscosity: Capillary tube (Ostwald / Ubbelohde) method; for mass density: Vibrating tube method
[2] = refractive index (Na D-line) (dimensionless); settings: 101.33 kPa, Liquid, Standard Abbe refractometry

Row | viscosity ([1]; 298.15 K) [mPa·s] | viscosity ([1]; 303.15 K) [mPa·s] | mass density ([1]; 303.15 K) [kg/m3] | viscosity ([1]; 308.15 K) [mPa·s] | mass density ([1]; 308.15 K) [kg/m3] | refractive index ([2]; 298.15 K) | refractive index ([2]; 303.15 K) | refractive index ([2]; 308.15 K) | SMILES | mass density ([1]; 298.15 K) [kg/m3]
1 | 16.87 ± 1.7 | 13.59 ± 1.4 | 1106 ± 1.1 | 11.34 ± 1.1 |  |  |  |  | OCCO [1,2-ethanediol] | 
2 | 41.36 ± 4.2 | 32.78 ± 3.3 | 1046.2 ± 0.9 | 27 ± 2.7 | 1043.1 ± 0.9 |  |  |  | OCCCO [propan-1,3-diol] | 1049.6 ± 0.9
3 | 0.806 ± 0.081 | 0.728 ± 0.073 | 995.4 ± 0.3 | 0.661 ± 0.066 | 993.7 ± 0.3 | 1.3326 ± 0.0005 | 1.3321 ± 0.0005 | 1.3315 ± 0.0005 | O [water] | 

Row | SMILES | viscosity ([1]; 298.15 K) [mPa·s] | viscosity ([1]; 303.15 K) [mPa·s] | mass density ([1]; 303.15 K) [kg/m3] | viscosity ([1]; 308.15 K) [mPa·s] | mass density ([1]; 308.15 K) [kg/m3] | refractive index ([2]; 298.15 K) | refractive index ([2]; 303.15 K) | refractive index ([2]; 308.15 K) | mass density ([1]; 298.15 K) [kg/m3]
4 | OCCCCO [1,4-butanediol] | 72.33 ± 7.3 | 56.43 ± 5.7 | 1010.6 ± 0.9 | 44.11 ± 4.5 | 1007.5 ± 0.9 |  |  |  | 1013.9 ± 0.9

From the NIST ThermoML archive (doi:10.1016/j.jct.2012.11.016)
